Reference: paper PMC11677243, “Target protein identification in live cells and organisms with a non-diffusive proximity tagging system” (eLife, 2024)

Tests used:
TOM1 = target: T1, TOM1 (Homo sapiens, UniProt O60784); assay: MST binding to Cy5-labeled TOM1; conditions: n = 2
T1 construct: 6xHis (pET28a, Ni column purification); made in house; host or cells: E. coli BL21(DE3)
Description: (§1) SEPHS2-2xV5, VPS37C-2xV5, VPS29, TRAPPC3, TOM1, and TOM1L2 were labeled using Cy5-NHS ester (A100932, Sangon Biotech, China). Briefly, each target protein was diluted to 10 µM in PBS and underwent buffer exchange with PBS using a Zeba spin desalting column (89882, Thermo Scientific, USA) to remove Tris. The labeling reaction consisted of 80 µl of 10 µM target protein, 10 µl of 1 M NaHCO3 pH 8.3, and 10 µl of 1 mM Cy5-NHS ester in DMSO, and was incubated at 4°C overnight. The next day, unlabeled dyes were removed using Zeba spin desalting columns, and labeling efficiency was assessed by measuring the concentration of Cy5 with a UV-Vis spectrophotometer (SMA5000, Merinton, China). […] Cy5-labeled SEPHS2-2xV5 (5 nM), VPS37C-2xV5 (5 nM), VPS29 (10 nM), TRAPPC3 (10 nM), TOM1 (10 nM), or TOM1L2 (10 nM) was mixed with the corresponding diluted compound in a total volume of 20 µl, and then loaded into Monolith premium capillaries (MO-K025, NanoTemper, Germany). Binding affinity analysis was performed using a NanoTemper Monolith NT.115 instrument (NanoTemper). Kd values were obtained using MO.Affinity Analysis 2.3.0 software (NanoTemper).

TOM1L2 = target: T2, TOM1L2 (Homo sapiens, UniProt Q6ZVM7); assay: MST binding to Cy5-labeled TOM1L2; conditions: n = 2
T2 construct: 6xHis (pET28a, Ni column purification); made in house; host or cells: E. coli BL21(DE3)
T2 sequence (Q6ZVM7 1-507): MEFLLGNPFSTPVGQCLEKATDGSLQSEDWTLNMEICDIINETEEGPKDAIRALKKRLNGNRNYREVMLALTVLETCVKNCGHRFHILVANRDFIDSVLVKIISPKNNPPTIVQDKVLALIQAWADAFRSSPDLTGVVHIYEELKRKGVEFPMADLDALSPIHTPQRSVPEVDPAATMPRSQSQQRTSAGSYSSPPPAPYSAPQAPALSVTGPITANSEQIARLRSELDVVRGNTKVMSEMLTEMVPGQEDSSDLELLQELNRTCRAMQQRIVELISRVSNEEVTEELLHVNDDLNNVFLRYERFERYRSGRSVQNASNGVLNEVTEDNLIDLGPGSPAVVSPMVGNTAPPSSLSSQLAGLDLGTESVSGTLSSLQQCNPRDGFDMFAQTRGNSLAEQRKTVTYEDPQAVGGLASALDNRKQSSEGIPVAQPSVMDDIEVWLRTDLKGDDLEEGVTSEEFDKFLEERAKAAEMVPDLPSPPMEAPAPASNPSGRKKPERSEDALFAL
Description: as §1

VPS37C-V5 = target: T3, VPS37C-V5 (Homo sapiens, UniProt A5D8V6); assay: POST-IT labeling and streptavidin pulldown of VPS37C-V5 in HEK293T cells; format: cell-based; conditions: 200 nM DC661-H1 with 2 µM competitor
T3 construct: expressed in transfected cells; host or cells: HEK293T
T3 sequence (A5D8V6 whole entry): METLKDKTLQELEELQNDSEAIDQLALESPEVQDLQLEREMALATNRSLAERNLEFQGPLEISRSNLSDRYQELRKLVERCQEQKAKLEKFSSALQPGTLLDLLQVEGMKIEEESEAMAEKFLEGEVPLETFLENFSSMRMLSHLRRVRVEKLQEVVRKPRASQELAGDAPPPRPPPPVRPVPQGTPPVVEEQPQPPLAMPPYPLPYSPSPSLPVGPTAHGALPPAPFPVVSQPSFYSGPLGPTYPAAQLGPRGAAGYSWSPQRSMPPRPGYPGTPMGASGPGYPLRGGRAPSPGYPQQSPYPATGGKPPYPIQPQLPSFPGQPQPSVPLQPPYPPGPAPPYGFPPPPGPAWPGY

VPS37C [1] = target: T4, VPS37C (Homo sapiens, UniProt A5D8V6); assay: MST binding to Cy5-labeled VPS37C; conditions: purified recombinant VPS37C; n = 2, mean ± s.d.
T4 construct: expressed in transfected cells; host or cells: HEK293T
T4 sequence (A5D8V6 whole entry): as above
Description: as §1

TRAPPC3 = target: T5, TRAPPC3 (Homo sapiens, UniProt O43617); assay: MST binding to Cy5-labeled TRAPPC3; conditions: n = 2
T5 construct: 6xHis (pET28a, Ni column purification); made in house; host or cells: E. coli BL21(DE3)
T5 sequence (O43617 whole entry): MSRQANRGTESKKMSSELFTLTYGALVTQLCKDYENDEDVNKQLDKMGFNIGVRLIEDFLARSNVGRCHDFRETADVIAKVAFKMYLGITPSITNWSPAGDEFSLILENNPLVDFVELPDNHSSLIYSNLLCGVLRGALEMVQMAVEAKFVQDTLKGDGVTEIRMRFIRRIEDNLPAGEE
Description: as §1

VPS37C [2] = target: T4, VPS37C; assay: Cellular thermal shift assay (CETSA) on cell lysates; format: binding; conditions: 20 µM compound, 47°C to 59°C
Description: […] cells were cultured on a 100 mm dish and transfected with 10 µg of VPS37C-2xV5 plasmid. Forty-eight hours later, the cells were washed twice with ice-cold PBS, harvested in 1 ml of PBS buffer supplemented with 0.4% NP-40 and 0.5×protease inhibitor cocktail, incubated for 15 min with gently rotation at room temperature, and centrifuged at maximum speed for 15 min at 4°C. The supernatant was transferred to a new 1.5 ml microtube, and protein concentration was determined by a BCA assay. Cell lysates were diluted to a concentration of 2 mg/ml and divided into two groups. The drug group was treated with 20 µM of DC660 or HCQ, while the control group received the same amount of DMSO. After a 20 min incubation at room temperature, cell lysates were gently mixed and aliquoted into PCR tubes with 40 µl each, then subjected to heat treatment for 4 min, ranging from 47°C to 59°C in 2°C increments, and cooled to room temperature on a T100 thermal cycler (Bio-Rad, USA). Subsequently, cell lysates were transferred to 1.5 ml microtubes and centrifuged at maximum speed for 20 min at 4°C to precipitate unstable insoluble proteins. The supernatant was transferred to a new 1.5 ml microtube, and 10 µl of 5×SDS sample buffer was added to each tube. Samples were boiled at 95°C for 5 min and processed for western blot analysis.

VPS29 = target: T6, VPS29 (Homo sapiens, UniProt Q9UBQ0); assay: MST binding to Cy5-labeled VPS29
T6 construct: 6xHis (pET28a, Ni column purification); made in house; host or cells: E. coli BL21(DE3)
Description: as §1

LC3-II [3] = assay: Autophagy inhibition by LC3-II western blot in HEK293T cells; format: cell-based, Homo sapiens; conditions: 12 hr
Description: (§2) Cells transfected and/or treated with different compounds were harvested at the end of treatment.

LC3-II [4] = assay: Autophagy inhibition by LC3-II western blot in A375 cells; format: cell-based, Homo sapiens; conditions: 12 hr
Description: as §2

SRC(247-536)-2xV5 = SRC(247-536)-2xV5 (Homo sapiens, UniProt P12931); conditions: 500 nM DH1, N-terminal Halo^8KR, 37°C, 30 min
Sequence of SRC(247-536)-2xV5 (P12931 247-536): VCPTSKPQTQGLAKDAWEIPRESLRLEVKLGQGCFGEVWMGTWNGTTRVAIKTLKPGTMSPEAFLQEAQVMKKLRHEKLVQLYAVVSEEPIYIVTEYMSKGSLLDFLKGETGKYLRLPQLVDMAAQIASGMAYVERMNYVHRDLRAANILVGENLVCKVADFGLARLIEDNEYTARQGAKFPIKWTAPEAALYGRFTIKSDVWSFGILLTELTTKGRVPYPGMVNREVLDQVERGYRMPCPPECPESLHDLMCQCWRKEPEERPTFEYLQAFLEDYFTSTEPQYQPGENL

SRC = assay: In cellulo pupylation and pulldown assay of SRC in HEK293T cells; format: cell-based, Homo sapiens; conditions: 500 nM DH1
Myc-Halo^8KR-PafA = target: T7, Myc-Halo^8KR-PafA (Rhodococcus rhodochrous, UniProt P0A3G2, A155T/A167V/A172T/A224E/C128F/C176G/D78G/E160R/E257R/H272N/K117R/K124R/K175M/K195N/K236R/K263R/K71R/K74R/L47V/L88M/N227D/P291S/S58T/T264A/Y273L/Y87F); assay: Halo-biotin competition assay (western blot, streptavidin-HRP); format: binding, Corynebacterium glutamicum; conditions: 2 μM DH1 preincubation, 1 μM Myc-Halo^8KR-PafA, then 5 μM Halo-Biotin
T7 construct: 6xHis (Ni column purification); made in house; host or cells: E. coli BL21(DE3)
T7 sequence (P0A3G2 other isoform, or with tags, fused parts or gaps with the stated changes): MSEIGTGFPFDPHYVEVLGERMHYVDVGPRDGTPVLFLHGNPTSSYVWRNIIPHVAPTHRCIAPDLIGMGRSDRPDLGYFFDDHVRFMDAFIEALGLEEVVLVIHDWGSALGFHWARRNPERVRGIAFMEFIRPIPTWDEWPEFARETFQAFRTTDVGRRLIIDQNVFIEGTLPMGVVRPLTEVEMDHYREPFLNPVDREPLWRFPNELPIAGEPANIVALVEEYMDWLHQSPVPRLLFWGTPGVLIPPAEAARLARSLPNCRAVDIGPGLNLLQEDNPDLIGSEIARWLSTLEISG
Description: Figure 2. Optimized Halo-PafA and Pup substrates efficiently promote pupylation in vitro in a proximity-dependent manner. […] (B) Comparison of proximity-tagging by different Halo-PafA derivatives on in vitro pupylation. (C) Comparison of different Pup substrates on in vitro pupylation with 500 nM DH1. […] (B–D) All reactions were conducted with 1 μM of a Halo-PafA derivative, 10 μM of one of the different Pup substrates, and 0.5 μM of a purified short SRC with a 2xV5 tag, SRC(247-536)-2xV5, at 37°C for 30 min. Pupylation levels of SRC were assessed by immunoblot (IB) using an anti-V5 antibody. Figure 2—source data 1. […] Figure 2—source data 2. […] Figure 2—figure supplement 1. Synthesis of dasatinib-Halo derivative 1 (DH1). Reagents and conditions: (a) HATU, DIPEA, DMF, RT, 2 hr; (b) NaOH, THF, H2O, RT, 2 hr. RT, room temperature. [drawing 4] Figure 2—figure supplement 2. Representative spectra of DH1. (A) ^1H NMR; (B) HRMS. [drawing 5] Figure 2—figure supplement 3. […] (A) Fluorescence polarization (FP) assay using 2 nM of HaloTag Alexa Fluor-488 (Halo-AF488) at 25°C. n = 2. […] (B) Western blot analysis for the Halo-Biotin competition assay. […] Levels of bound Halo-Biotin were assessed by streptavidin-HRP. (C) Quantitative analysis of western blot results shown in (B). n = 5. […] Pupylation levels of SRC were assessed by immunoblot (IB) using an anti-V5 antibody. […]

HA-FKBP-EGFP = HA-FKBP-EGFP (Homo sapiens, UniProt P42345+P62942); assay: Rapamycin-induced pupylation of FKBP-EGFP by FRB-mKate2-PafA in HEK293T cells; format: cell-based; conditions: 100 nM rapamycin
Sequence of HA-FKBP-EGFP (P62942 whole entry): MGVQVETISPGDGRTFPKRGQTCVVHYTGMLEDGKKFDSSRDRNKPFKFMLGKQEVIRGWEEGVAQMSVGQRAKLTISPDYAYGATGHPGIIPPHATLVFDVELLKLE
Sequence of HA-FKBP-EGFP (P42345 2012-2144 limits assumed): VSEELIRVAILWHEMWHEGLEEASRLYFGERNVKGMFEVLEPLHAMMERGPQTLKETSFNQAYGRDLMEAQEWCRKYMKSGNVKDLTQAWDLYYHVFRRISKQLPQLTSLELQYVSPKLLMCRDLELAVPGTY

T1 sequence (O60784 whole entry): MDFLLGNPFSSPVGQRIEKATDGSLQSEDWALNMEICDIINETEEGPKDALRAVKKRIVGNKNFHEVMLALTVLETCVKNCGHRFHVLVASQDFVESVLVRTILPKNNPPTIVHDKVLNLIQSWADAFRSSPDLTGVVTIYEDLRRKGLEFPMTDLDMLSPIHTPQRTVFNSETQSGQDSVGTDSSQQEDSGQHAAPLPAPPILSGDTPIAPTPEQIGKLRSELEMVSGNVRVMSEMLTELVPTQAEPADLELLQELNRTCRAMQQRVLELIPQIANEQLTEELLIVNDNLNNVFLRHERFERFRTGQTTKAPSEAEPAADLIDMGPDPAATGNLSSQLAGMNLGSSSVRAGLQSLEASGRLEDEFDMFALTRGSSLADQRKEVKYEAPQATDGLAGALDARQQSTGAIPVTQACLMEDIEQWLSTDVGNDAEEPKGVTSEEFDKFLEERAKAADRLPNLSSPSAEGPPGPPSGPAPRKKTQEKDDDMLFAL

| SMILES | binding to TOM1 (MST) (TOM1) | binding to TOM1L2 (MST) (TOM1L2) | VPS37C binding to DC661-H1 under competition (VPS37C-V5) | Kd (VPS37C [1]) | binding to TRAPPC3 (MST) (TRAPPC3) | thermal stability of VPS37C versus DMSO (CETSA) (VPS37C [2]) | Kd (VPS29; n = 2, mean ± s.d.) | levels of LC3-II band (autophagy inhibition) (LC3-II [3]) | levels of LC3-II band (autophagy inhibition) (LC3-II [4]) | pupylation of purified recombinant short SRC by Halo^8KR-PafA (SRC(247-536)-2xV5) | POST-IT labeling of exogenous and endogenous SRC (SRC) | time for efficient linking to Halo^8KR-PafA (Myc-Halo^8KR-PafA) | binding to VPS29 (MST dose-response) (VPS29; n = 2) | pupylation of FKBP-EGFP by PafA fused with FRB (HA-FKBP-EGFP) |
| --- | --- | --- | --- | --- | --- | --- | --- | --- | --- | --- | --- | --- | --- | --- |
| Clc1ccc2c(NCCCCCCNCCCCCCNc3ccnc4cc(Cl)ccc34)ccnc2c1 [DC660, N^1-(7-Chloroquinolin-4-yl)-N^6-(6-((7-chloroquinolin-4-yl)amino)hexyl)hexane-1,6-diamine] | appeared to bind well | appeared to bind well | almost completely abolished | 0.0215 ± 0.0098 µM | appeared to bind well | more stable | 25 ± 11.7 µM | robust LC3-II bands | robust LC3-II bands | – | – | – | – | – |
| Cc1nc(Nc2ncc(C(=O)Nc3c(C)cccc3Cl)s2)cc(N2CCN(CCNC(=O)CCCCC(=O)NCCOCCOCCOCCOCCCCCCCl)CC2)n1 [DH1, N1-(2-(4-(6-((5-((2-Chloro-6-methylphenyl)carbamoyl)thiazol-2-yl)amino)-2-methylpyrimidin-4-yl)piperazin-1-yl)ethyl)-N6-(18-chloro-3,6,9,12-tetraoxaoctadecyl)adipamide] | – | – | – | – | – | – | – | – | – | robust pupylation | significant labeling activity | ≤ 15 min | – | – |
| CCN(CCO)CCCC(C)Nc1ccnc2cc(Cl)ccc12 (centres unmarked) [HCQ, hydroxychloroquine, reference compound] | did not show detectable binding | did not show detectable binding | almost completely abolished | 16.9 ± 8.7 µM | did not show detectable binding | more stable | – | – | – | – | – | – | no binding | – |
| CO[C@H]1C[C@@H]2CC[C@@H](C)[C@@](O)(O2)C(=O)C(=O)N2CCCC[C@H]2C(=O)O[C@H]([C@H](C)C[C@@H]2CC[C@@H](O)[C@H](OC)C2)CC(=O)[C@H](C)/C=C(\C)[C@@H](O)[C@@H](OC)C(=O)[C@H](C)C[C@H](C)/C=C/C=C/C=C/1C [rapamycin] | – | – | – | – | – | – | – | – | – | – | – | – | – | robust pupylation |
